Laboratory results published in patent US20230295197A1, “STAT5 and STAT6 Degraders and Uses Thereof” (REGENTS OF THE UNIVERSITY OF MICHICAN, priority 2022, published 2023).
Read-outs that look alike come from different tables or passages of the source.

Test system: STAT5
Experiment: Immunoblotting (Western blot) analysis of STAT5 degradation efficiency of degraders in treated cells
Assay type: cell-based
How it was run: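 Cells (~1 million per point) treated with compounds at indicated concentrations and times, lysed in RIPA with protease/phosphatase inhibitors; 20-40 μg protein run on SDS-PAGE and blotted to PVDF. STAT6 or STAT5 rabbit mAbs with GAPDH loading control, IRDye secondaries; near-infrared fluorescence scan, band intensity quantified.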

[1] = KU-812 cells, read-out: DC50 S5 KU-812
[2] = SKNO1 cells, read-out: DC50 S5 SKNO1
[3] = MOLM-16 cells, numeric bound, read-out: DC50 S5 MOLM-16
[4] = MOLM-16 cells, class symbols, read-out: DC50 S5 MOLM-16

SMILES	DC50 [1]	DC50 [2]	DC50 [3]	DC50 [4]
CN(CCCC#Cc1cccc2c1CN(C1CCC(=O)NC1=O)C2=O)C(=O)CCN(C(=O)[C@@H]1CCCN1C(=O)[C@@H](NC(=O)c1cc2cc(C(F)(F)P(=O)(O)O)ccc2s1)C(C)(C)C)c1ccc2scnc2c1 (stereo partly drawn) [Compound 684, ((2-(((2S)-1-((2S)-2-(benzo[d]thiazol-5-yl(3-((5-(2-(2,6-dioxopiperidin-3-yl)-1-oxoisoindolin-4-yl)pent-4-yn-1-yl)(methyl)amino)-3-oxopropyl)carbamoyl)pyrrolidin-1-yl)-3,3-dimethyl-1-oxobutan-2-yl)carbamoyl)benzo[b]thiophen-5-yl)difluoromethyl)phosphonic acid]	100 to 1000 nM	100 to 1000 nM	–	–
CC(C)(C)[C@H](NC(=O)c1cc2cc(C(F)(F)P(=O)(O)O)ccc2s1)C(=O)N1CCC[C@H]1C(=O)N(CCC(=O)NCCCC#Cc1cccc2c1CN(C1CCC(=O)NC1=O)C2=O)c1ccc(Cl)cc1 (stereo partly drawn) [Compound 635, ((2-(((2S)-1-((2S)-2-((4-chlorophenyl)(3-((5-(2-(2,6-dioxopiperidin-3-yl)-1-oxoisoindolin-4-yl)pent-4-yn-1-yl)amino)-3-oxopropyl)carbamoyl)pyrrolidin-1-yl)-3,3-dimethyl-1-oxobutan-2-yl)carbamoyl)benzo[b]thiophen-5-yl)difluoromethyl)phosphonic acid]	1000 to 10000 nM	1000 to 10000 nM	> 300 nM	–
CCN1CC[C@H]2CC[C@@H](C(=O)N(CCC(=O)NCC#Cc3cccc4c3CN(C3CCC(=O)NC3=O)C4=O)c3ccc(Br)cc3)N2C(=O)[C@@H](NC(=O)c2cc3cc(C(F)(F)P(=O)(O)O)ccc3s2)C1 (stereo partly drawn) [Compound 625, ((2-(((5S,8S,10aR)-8-((4-bromophenyl)(3-((3-(2-(2,6-dioxopiperidin-3-yl)-1-oxoisoindolin-4-yl)prop-2-yn-1-yl)amino)-3-oxopropyl)carbamoyl)-3-ethyl-6-oxodecahydropyrrolo[1,2-a][1,5]diazocin-5-yl)carbamoyl)benzo[b]thiophen-5-yl)difluoromethyl)phosphonic acid]	–	–	> 300 nM	–
CCN1CC[C@H]2CC[C@@H](C(=O)N(CCC(=O)NCCC#Cc3cccc4c3CN(C3CCC(=O)NC3=O)C4=O)c3ccc(Br)cc3)N2C(=O)[C@@H](NC(=O)c2cc3cc(C(F)(F)P(=O)(O)O)ccc3s2)C1 (stereo partly drawn) [Compound 626, ((2-(((5S,8S,10aR)-8-((4-bromophenyl)(3-((4-(2-(2,6-dioxopiperidin-3-yl)-1-oxoisoindolin-4-yl)but-3-yn-1-yl)amino)-3-oxopropyl)carbamoyl)-3-ethyl-6-oxodecahydropyrrolo[1,2-a][1,5]diazocin-5-yl)carbamoyl)benzo[b]thiophen-5-yl)difluoromethyl)phosphonic acid]	–	–	> 300 nM	–
CC(C)(C)[C@H](NC(=O)c1cc2cc(C(F)(F)P(=O)(O)O)ccc2s1)C(=O)N1CCC[C@H]1C(=O)N(CCC(=O)NCCCC#Cc1cccc2c1CN(C1CCC(=O)NC1=O)C2=O)c1ccc(C#N)cc1 (stereo partly drawn) [Compound 642, ((2-(((2S)-1-((2S)-2-((4-cyanophenyl)(3-((5-(2-(2,6-dioxopiperidin-3-yl)-1-oxoisoindolin-4-yl)pent-4-yn-1-yl)amino)-3-oxopropyl)carbamoyl)pyrrolidin-1-yl)-3,3-dimethyl-1-oxobutan-2-yl)carbamoyl)benzo[b]thiophen-5-yl)difluoromethyl)phosphonic acid]	–	> 10000 nM	> 300 nM	–
CC(C)(C)[C@H](NC(=O)c1cc2cc(C(F)(F)P(=O)(O)O)ccc2s1)C(=O)N1CCC[C@H]1C(=O)N(CCC(=O)NCCCC#Cc1cccc2c1CN(C1CCC(=O)NC1=O)C2=O)c1ccccc1 (stereo partly drawn) [Compound 633, ((2-(((2S)-1-((2S)-2-((3-((5-(2-(2,6-dioxopiperidin-3-yl)-1-oxoisoindolin-4-yl)pent-4-yn-1-yl)amino)-3-oxopropyl)(phenyl)carbamoyl)pyrrolidin-1-yl)-3,3-dimethyl-1-oxobutan-2-yl)carbamoyl)benzo[b]thiophen-5-yl)difluoromethyl)phosphonic acid]	> 10000 nM	1000 to 10000 nM	> 300 nM	–
CC(C)(C)[C@H](NC(=O)c1cc2cc(C(F)(F)P(=O)(O)O)ccc2s1)C(=O)N1CCC[C@H]1C(=O)N(CCC(=O)NCCCC#Cc1cccc2c1CN(C1CCC(=O)NC1=O)C2=O)c1ccc(-c2cccs2)cc1 (stereo partly drawn) [Compound 648, ((2-(((2S)-1-((2S)-2-((3-((5-(2-(2,6-dioxopiperidin-3-yl)-1-oxoisoindolin-4-yl)pent-4-yn-1-yl)amino)-3-oxopropyl)(4-(thiophen-2-yl)phenyl)carbamoyl)pyrrolidin-1-yl)-3,3-dimethyl-1-oxobutan-2-yl)carbamoyl)benzo[b]thiophen-5-yl)difluoromethyl)phosphonic acid]	100 to 1000 nM	100 to 1000 nM	–	< 100 nM
CC(C)(C)[C@H](NC(=O)c1cc2cc(C(F)(F)P(=O)(O)O)ccc2s1)C(=O)N1CCC[C@H]1C(=O)N(CCC(=O)NCCCCC#Cc1cccc2c1CN(C1CCC(=O)NC1=O)C2=O)c1ccc(Cl)cc1 (stereo partly drawn) [Compound 638, ((2-(((2S)-1-((2S)-2-((4-chlorophenyl)(3-((6-(2-(2,6-dioxopiperidin-3-yl)-1-oxoisoindolin-4-yl)hex-5-yn-1-yl)amino)-3-oxopropyl)carbamoyl)pyrrolidin-1-yl)-3,3-dimethyl-1-oxobutan-2-yl)carbamoyl)benzo[b]thiophen-5-yl)difluoromethyl)phosphonic acid]	–	–	–	100 to 1000 nM
CC(C)(C)[C@H](NC(=O)c1cc2cc(C(F)(F)P(=O)(O)O)ccc2s1)C(=O)N1C[C@H](OCc2ccccc2)C[C@H]1C(=O)N(CCC(=O)NCC#Cc1cccc2c1CN(C1CCC(=O)NC1=O)C2=O)c1ccc(Br)cc1 (stereo partly drawn) [Compound 616, ((2-(((2S)-1-((2S,4R)-4-(benzyloxy)-2-((4-bromophenyl)(3-((3-(2-(2,6-dioxopiperidin-3-yl)-1-oxoisoindolin-4-yl)prop-2-yn-1-yl)amino)-3-oxopropyl)carbamoyl)pyrrolidin-1-yl)-3,3-dimethyl-1-oxobutan-2-yl)carbamoyl)benzo[b]thiophen-5-yl)difluoromethyl)phosphonic acid]	–	–	> 300 nM	–
CC(C)(C)[C@H](NC(=O)c1cc2cc(C(F)(F)P(=O)(O)O)ccc2s1)C(=O)N1CCC[C@H]1C(=O)N(CCC(=O)NCCCC#Cc1cccc2c1CN(C1CCC(=O)NC1=O)C2=O)c1ccc(C2CCOCC2)cc1 (stereo partly drawn) [Compound 651, ((2-(((2S)-1-((2S)-2-((3-((5-(2-(2,6-dioxopiperidin-3-yl)-1-oxoisoindolin-4-yl)pent-4-yn-1-yl)amino)-3-oxopropyl)(4-(tetrahydro-2H-pyran-4-yl)phenyl)carbamoyl)pyrrolidin-1-yl)-3,3-dimethyl-1-oxobutan-2-yl)carbamoyl)benzo[b]thiophen-5-yl)difluoromethyl)phosphonic acid]	–	> 10000 nM	> 300 nM	–
CC(C)(C)[C@H](NC(=O)c1cc2cc(C(F)(F)P(=O)(O)O)ccc2s1)C(=O)N1CCC[C@H]1C(=O)N(CCC(=O)NCCCC#Cc1cccc2c1CN(C1CCC(=O)NC1=O)C2=O)c1cccc(C(F)(F)F)c1 (stereo partly drawn) [Compound 645, ((2-(((2S)-1-((2S)-2-((3-((5-(2-(2,6-dioxopiperidin-3-yl)-1-oxoisoindolin-4-yl)pent-4-yn-1-yl)amino)-3-oxopropyl)(3-(trifluoromethyl)phenyl)carbamoyl)pyrrolidin-1-yl)-3,3-dimethyl-1-oxobutan-2-yl)carbamoyl)benzo[b]thiophen-5-yl)difluoromethyl)phosphonic acid]	–	> 10000 nM	> 300 nM	–
CC(C)(C)[C@H](NC(=O)c1cc2cc(C(F)(F)P(=O)(O)O)ccc2s1)C(=O)N1CCC[C@H]1C(=O)N(CCC(=O)NCCCC#Cc1cccc2c1CN(C1CCC(=O)NC1=O)C2=O)c1ccc(I)cc1 (stereo partly drawn) [Compound 637, ((2-(((2S)-1-((2S)-2-((3-((5-(2-(2,6-dioxopiperidin-3-yl)-1-oxoisoindolin-4-yl)pent-4-yn-1-yl)amino)-3-oxopropyl)(4-iodophenyl)carbamoyl)pyrrolidin-1-yl)-3,3-dimethyl-1-oxobutan-2-yl)carbamoyl)benzo[b]thiophen-5-yl)difluoromethyl)phosphonic acid]	–	100 to 1000 nM	> 300 nM	–
CC(C)(C)[C@H](NC(=O)c1cc2cc(C(F)(F)P(=O)(O)O)ccc2s1)C(=O)N1CCC[C@H]1C(=O)N(CCC(=O)NCCCC#Cc1cccc2c1CN(C1CCC(=O)NC1=O)C2=O)c1ccc(C(F)(F)F)cc1 (stereo partly drawn) [Compound 644, ((2-(((2S)-1-((2S)-2-((3-((5-(2-(2,6-dioxopiperidin-3-yl)-1-oxoisoindolin-4-yl)pent-4-yn-1-yl)amino)-3-oxopropyl)(4-(trifluoromethyl)phenyl)carbamoyl)pyrrolidin-1-yl)-3,3-dimethyl-1-oxobutan-2-yl)carbamoyl)benzo[b]thiophen-5-yl)difluoromethyl)phosphonic acid]	–	1000 to 10000 nM	> 300 nM	–
CC(C)(C)[C@H](NC(=O)c1cc2cc(C(F)(F)P(=O)(O)O)ccc2s1)C(=O)N1CCC[C@H]1C(=O)N(CCC(=O)N1CCC(C#Cc2cccc3c2CN(C2CCC(=O)NC2=O)C3=O)CC1)c1ccc(Br)cc1 (stereo partly drawn) [Compound 613, ((2-(((2S)-1-((2S)-2-((4-bromophenyl)(3-(4-((2-(2,6-dioxopiperidin-3-yl)-1-oxoisoindolin-4-yl)ethynyl)piperidin-1-yl)-3-oxopropyl)carbamoyl)pyrrolidin-1-yl)-3,3-dimethyl-1-oxobutan-2-yl)carbamoyl)benzo[b]thiophen-5-yl)difluoromethyl)phosphonic acid]	> 10000 nM	> 10000 nM	> 300 nM	–
